In patent US20100267561A1, “HERBICIDAL PYRIDAZINONE DERIVATIVES” (priority 2007, published 2010):

Legend:
Assay in all cases: Test E pre-/postemergence plant response
Type in all cases: in vivo
Settings in all cases: scale 0 to 100
[1] = test system: common mallow (Malva sylvestris)
Summary of the method: (§1)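 Plants scored visually versus controls on a 0–100 scale (100 = complete control) 14 to 21 days after treatment in the greenhouse. Test chemicals in a surfactant-containing non-phytotoxic solvent were applied to soil preemergence or to 1- to 4-leaf plants, 2–18 cm tall.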

[2] = test system: bermudagrass (Cynodon dactylon)
Summary of the method: as §1

[3] = test system: green foxtail (Setaria viridis)
Summary of the method: as §1

[4] = test system: johnsongrass (Sorghum halepense)
Summary of the method: as §1

[5] = test system: annual bluegrass (Poa annua)
Summary of the method: as §1

[6] = test system: surinam grass (Brachiaria decumbens)
Summary of the method: as §1

[7] = test system: goosegrass (Eleusine indica)
Summary of the method: as §1

[8] = test system: itchgrass (Rottboellia cochinchinensis)
Summary of the method: as §1

[9] = test system: pitted morningglory (Ipomoea lacunosa)
Summary of the method: as §1

[10] = test system: barnyardgrass (Echinochloa crus-galli)
Summary of the method: as §1

[11] = test system: purple nutsedge (Cyperus rotundus)
Summary of the method: as §1

[12] = test system: guineagrass (Panicum maximum)
Summary of the method: as §1

Which results are given for `Cc1cc(-c2ccc(Cl)cc2)nn1-c1c(OS(C)(=O)=O)cnn(C)c1=O` [Compound 36]?
Plant response rating, Mallow ([1]; 16 g ai/ha, Preemergence): 0; Plant response rating, Mallow ([1]; 31 g ai/ha, Preemergence): 0; Plant response rating, Mallow ([1]; 62 g ai/ha, Preemergence): 0; Plant response rating, Mallow ([1]; Postemergence, 8 g ai/ha): 0; Plant response rating, Mallow ([1]; Postemergence, 16 g ai/ha): 0; Plant response rating, Mallow ([1]; Postemergence, 31 g ai/ha): 0; Plant response rating, Mallow ([1]; Postemergence, 62 g ai/ha): 0; Plant response rating, Bermudagrass ([2]; 8 g ai/ha, Preemergence): 75; Plant response rating, Bermudagrass ([2]; 16 g ai/ha, Preemergence): 100; Plant response rating, Bermudagrass ([2]; 31 g ai/ha, Preemergence): 100; Plant response rating, Bermudagrass ([2]; 62 g ai/ha, Preemergence): 100; Plant response rating, Bermudagrass ([2]; Postemergence, 8 g ai/ha): 40; Plant response rating, Bermudagrass ([2]; Postemergence, 16 g ai/ha): 40; Plant response rating, Bermudagrass ([2]; Postemergence, 31 g ai/ha): 70; Plant response rating, Bermudagrass ([2]; Postemergence, 62 g ai/ha): 90; Plant response rating, Foxtail, Green ([3]; 8 g ai/ha, Preemergence): 15; Plant response rating, Foxtail, Green ([3]; 16 g ai/ha, Preemergence): 60; Plant response rating, Foxtail, Green ([3]; 31 g ai/ha, Preemergence): 95; Plant response rating, Foxtail, Green ([3]; 62 g ai/ha, Preemergence): 100; Plant response rating, Foxtail, Green ([3]; Postemergence, 8 g ai/ha): 35; Plant response rating, Foxtail, Green ([3]; Postemergence, 16 g ai/ha): 50; Plant response rating, Foxtail, Green ([3]; Postemergence, 31 g ai/ha): 75; Plant response rating, Foxtail, Green ([3]; Postemergence, 62 g ai/ha): 75; Plant response rating, Johnsongrass ([4]; 16 g ai/ha, Preemergence): 75; Plant response rating, Johnsongrass ([4]; 31 g ai/ha, Preemergence): 85; Plant response rating, Johnsongrass ([4]; 62 g ai/ha, Preemergence): 95; Plant response rating, Johnsongrass ([4]; Postemergence, 8 g ai/ha): 35; Plant response rating, Johnsongrass ([4]; Postemergence, 16 g ai/ha): 50; Plant response rating, Johnsongrass ([4]; Postemergence, 31 g ai/ha): 75; Plant response rating, Johnsongrass ([4]; Postemergence, 62 g ai/ha): 95; Plant response rating, Bluegrass ([5]; 8 g ai/ha, Preemergence): 0; Plant response rating, Bluegrass ([5]; 16 g ai/ha, Preemergence): 0; Plant response rating, Bluegrass ([5]; 31 g ai/ha, Preemergence): 0; Plant response rating, Bluegrass ([5]; 62 g ai/ha, Preemergence): 0; Plant response rating, Bluegrass ([5]; Postemergence, 8 g ai/ha): 0; Plant response rating, Bluegrass ([5]; Postemergence, 16 g ai/ha): 0; Plant response rating, Bluegrass ([5]; Postemergence, 31 g ai/ha): 0; Plant response rating, Bluegrass ([5]; Postemergence, 62 g ai/ha): 0; Plant response rating, Surinam Grass ([6]; 16 g ai/ha, Preemergence): 95; Plant response rating, Surinam Grass ([6]; 31 g ai/ha, Preemergence): 100; Plant response rating, Surinam Grass ([6]; 62 g ai/ha, Preemergence): 100; Plant response rating, Surinam Grass ([6]; Postemergence, 8 g ai/ha): 65; Plant response rating, Surinam Grass ([6]; Postemergence, 16 g ai/ha): 65; Plant response rating, Surinam Grass ([6]; Postemergence, 31 g ai/ha): 80; Plant response rating, Surinam Grass ([6]; Postemergence, 62 g ai/ha): 100; Plant response rating, Goosegrass ([7]; 8 g ai/ha, Preemergence): 30; Plant response rating, Goosegrass ([7]; 16 g ai/ha, Preemergence): 98; Plant response rating, Goosegrass ([7]; 31 g ai/ha, Preemergence): 98; Plant response rating, Goosegrass ([7]; 62 g ai/ha, Preemergence): 100; Plant response rating, Goosegrass ([7]; Postemergence, 8 g ai/ha): 0; Plant response rating, Goosegrass ([7]; Postemergence, 16 g ai/ha): 35; Plant response rating, Goosegrass ([7]; Postemergence, 31 g ai/ha): 40; Plant response rating, Goosegrass ([7]; Postemergence, 62 g ai/ha): 75; Plant response rating, Itchgrass ([8]; 16 g ai/ha, Preemergence): 65; Plant response rating, Itchgrass ([8]; 31 g ai/ha, Preemergence): 75; Plant response rating, Itchgrass ([8]; 62 g ai/ha, Preemergence): 90; Plant response rating, Itchgrass ([8]; Postemergence, 8 g ai/ha): 0; Plant response rating, Itchgrass ([8]; Postemergence, 16 g ai/ha): 40; Plant response rating, Itchgrass ([8]; Postemergence, 31 g ai/ha): 50; Plant response rating, Itchgrass ([8]; Postemergence, 62 g ai/ha): 60; Plant response rating, Morningglory ([9]; 16 g ai/ha, Preemergence): 0; Plant response rating, Morningglory ([9]; 31 g ai/ha, Preemergence): 0; Plant response rating, Morningglory ([9]; 62 g ai/ha, Preemergence): 0; Plant response rating, Morningglory ([9]; Postemergence, 8 g ai/ha): 0; Plant response rating, Morningglory ([9]; Postemergence, 16 g ai/ha): 0; Plant response rating, Morningglory ([9]; Postemergence, 31 g ai/ha): 0; Plant response rating, Morningglory ([9]; Postemergence, 62 g ai/ha): 0; Plant response rating, Barnyardgrass ([10]; 8 g ai/ha, Preemergence): 80; Plant response rating, Barnyardgrass ([10]; 16 g ai/ha, Preemergence): 95; Plant response rating, Barnyardgrass ([10]; 31 g ai/ha, Preemergence): 95; Plant response rating, Barnyardgrass ([10]; 62 g ai/ha, Preemergence): 100; Plant response rating, Barnyardgrass ([10]; Postemergence, 8 g ai/ha): 50; Plant response rating, Barnyardgrass ([10]; Postemergence, 16 g ai/ha): 50; Plant response rating, Barnyardgrass ([10]; Postemergence, 31 g ai/ha): 95; Plant response rating, Barnyardgrass ([10]; Postemergence, 62 g ai/ha): 100; Plant response rating, Nutsedge, Purple ([11]; 16 g ai/ha, Preemergence): 0; Plant response rating, Nutsedge, Purple ([11]; 31 g ai/ha, Preemergence): 0; Plant response rating, Nutsedge, Purple ([11]; 62 g ai/ha, Preemergence): 0; Plant response rating, Nutsedge, Purple ([11]; Postemergence, 8 g ai/ha): 0; Plant response rating, Nutsedge, Purple ([11]; Postemergence, 16 g ai/ha): 0; Plant response rating, Nutsedge, Purple ([11]; Postemergence, 31 g ai/ha): 0; Plant response rating, Nutsedge, Purple ([11]; Postemergence, 62 g ai/ha): 0; Plant response rating, Guineagrass ([12]; 16 g ai/ha, Preemergence): 100; Plant response rating, Guineagrass ([12]; 31 g ai/ha, Preemergence): 100; Plant response rating, Guineagrass ([12]; 62 g ai/ha, Preemergence): 100; Plant response rating, Guineagrass ([12]; Postemergence, 8 g ai/ha): 35; Plant response rating, Guineagrass ([12]; Postemergence, 16 g ai/ha): 75; Plant response rating, Guineagrass ([12]; Postemergence, 31 g ai/ha): 90; Plant response rating, Guineagrass ([12]; Postemergence, 62 g ai/ha): 90
